The text below walks through data of PMC9127493 (Signal Transduction and Targeted Therapy, 2022).

Data set [1] is described as follows: Cytotoxicity of drugs used in pseudovirus experiments (MTS). Format: cell-based. The note with it: human; 293T-hACE2 cells, MTS assay at 48 hours, n = 3. As for the experimental part: Cells were seeded into 96-well plates and exposed to serially diluted drugs for 48 h. Cell viability was determined using MTS (Promega, Madison, WI, USA), according to the manufacturer’ s instructions. The absorbance was measured in Varioskan Flash (Thermo) at 490 nm. Data were normalized to the control group (DMSO). CC50 values were calculated by concentration-response curve-fitting using GraphPad Prism.
293T-hACE2 cells were treated with serially diluted drugs and cytotoxicity was determined by MTS assay at 48 hours (n = 3).

Data set [2] in a line: Antiproliferation (MTS) assay, cytotoxicity. The note with it: African green monkey, Vero E6 cells. Format: cell-based. How it is done: Cell viability was determined using MTS (Promega, Madison, WI, USA), according to the manufacturer’ s instructions. The absorbance was measured in Varioskan Flash (Thermo) at 490 nm. Data were normalized to the control group (DMSO). CC50 values were calculated by concentration-response curve-fitting using GraphPad Prism.

The target of data set [3] is T1, PIKfyve (Homo sapiens, UniProt Q9Y2I7).
T1 construct: purchased Eurofins DiscoverX Corporation (KINOMEscan service); host or cells: HEK-293
T1 sequence (Q9Y2I7 whole entry): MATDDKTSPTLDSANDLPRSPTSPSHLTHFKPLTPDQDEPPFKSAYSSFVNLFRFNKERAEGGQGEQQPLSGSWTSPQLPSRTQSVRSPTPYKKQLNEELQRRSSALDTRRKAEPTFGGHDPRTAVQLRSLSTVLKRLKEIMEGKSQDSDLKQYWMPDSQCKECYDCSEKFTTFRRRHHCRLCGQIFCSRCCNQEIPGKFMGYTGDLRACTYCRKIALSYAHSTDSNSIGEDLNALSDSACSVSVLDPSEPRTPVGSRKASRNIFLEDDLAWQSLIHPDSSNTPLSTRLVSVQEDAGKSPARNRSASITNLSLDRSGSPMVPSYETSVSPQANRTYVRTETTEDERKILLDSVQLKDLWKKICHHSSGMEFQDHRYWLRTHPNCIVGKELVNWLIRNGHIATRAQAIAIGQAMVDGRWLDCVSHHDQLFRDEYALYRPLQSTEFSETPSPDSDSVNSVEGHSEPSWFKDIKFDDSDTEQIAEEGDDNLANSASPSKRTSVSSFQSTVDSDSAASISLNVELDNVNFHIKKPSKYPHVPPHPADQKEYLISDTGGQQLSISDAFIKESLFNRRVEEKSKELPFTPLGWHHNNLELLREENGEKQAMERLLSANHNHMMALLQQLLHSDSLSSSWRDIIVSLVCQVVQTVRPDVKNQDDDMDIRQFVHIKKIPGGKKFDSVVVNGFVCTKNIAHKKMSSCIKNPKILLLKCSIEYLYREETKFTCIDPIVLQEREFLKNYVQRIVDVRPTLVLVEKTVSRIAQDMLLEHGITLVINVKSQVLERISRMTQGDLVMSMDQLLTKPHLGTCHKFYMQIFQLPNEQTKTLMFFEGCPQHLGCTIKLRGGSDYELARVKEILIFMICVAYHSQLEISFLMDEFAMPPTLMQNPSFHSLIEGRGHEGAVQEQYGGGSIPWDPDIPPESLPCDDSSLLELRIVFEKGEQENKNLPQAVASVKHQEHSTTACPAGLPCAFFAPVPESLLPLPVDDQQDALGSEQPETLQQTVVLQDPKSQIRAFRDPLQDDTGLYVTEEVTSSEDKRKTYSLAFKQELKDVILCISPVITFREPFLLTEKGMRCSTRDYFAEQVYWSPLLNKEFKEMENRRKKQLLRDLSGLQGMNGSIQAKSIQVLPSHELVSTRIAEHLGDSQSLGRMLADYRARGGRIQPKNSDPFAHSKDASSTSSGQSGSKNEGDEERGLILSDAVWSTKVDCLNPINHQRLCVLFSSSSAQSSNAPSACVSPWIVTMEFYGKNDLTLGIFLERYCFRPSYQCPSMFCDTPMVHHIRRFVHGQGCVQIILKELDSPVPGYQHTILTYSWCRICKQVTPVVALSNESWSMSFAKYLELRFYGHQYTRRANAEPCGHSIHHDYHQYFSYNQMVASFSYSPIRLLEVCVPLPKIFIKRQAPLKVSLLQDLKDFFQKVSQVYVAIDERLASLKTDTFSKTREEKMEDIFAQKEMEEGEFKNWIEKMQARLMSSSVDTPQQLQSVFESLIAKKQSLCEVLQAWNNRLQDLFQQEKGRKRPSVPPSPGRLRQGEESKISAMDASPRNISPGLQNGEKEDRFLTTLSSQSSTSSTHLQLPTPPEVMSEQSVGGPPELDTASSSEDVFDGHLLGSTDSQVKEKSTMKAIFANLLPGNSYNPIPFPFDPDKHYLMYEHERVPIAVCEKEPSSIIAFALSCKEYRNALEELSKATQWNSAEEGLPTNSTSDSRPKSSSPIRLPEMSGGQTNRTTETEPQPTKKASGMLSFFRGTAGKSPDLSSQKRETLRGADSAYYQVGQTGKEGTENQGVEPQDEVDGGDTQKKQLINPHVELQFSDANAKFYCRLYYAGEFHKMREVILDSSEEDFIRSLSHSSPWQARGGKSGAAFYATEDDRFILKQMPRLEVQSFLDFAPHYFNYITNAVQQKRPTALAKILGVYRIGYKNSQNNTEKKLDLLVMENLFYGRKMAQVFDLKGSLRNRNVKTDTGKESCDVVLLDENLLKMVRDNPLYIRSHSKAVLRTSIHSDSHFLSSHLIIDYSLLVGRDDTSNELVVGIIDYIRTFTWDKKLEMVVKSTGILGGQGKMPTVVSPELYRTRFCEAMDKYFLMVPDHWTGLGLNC
Kind of data set: KINOMEscan competitive binding assay, Kds determination. An excerpt: KINOMEscan technology is a competitive affinity-based binding assay provided by Eurofins DiscoverX Corporation^3. Briefly, kinases were produced in HEK-293 cells and tagged with DNA for qPCR detection. Affinity resins were generated by treating streptavidin-coated magnetic beads with biotinylated small molecule ligands. For binding assays, the liganded beads were combined with DNA-tagged kinases and the test compounds. DMSO was used as a control. Compounds that bind to the DNA-tagged kinases will prevent these kinases binding with immobilized ligands and reduce the amount of the corresponding kinases captured on solid support. Kds were determined using 11 serial threefold dilutions of the test compounds and a DMSO control.
Supplementary Figure S1. The equilibrium dissociation constant (Kd) for XMU-MP-7 with PIKfyve was determined from 2 independent titration curves.

The subject of data set [4] is SARS-CoV-2 wild-type isolate XM088T. The data set is described as follows: Antiviral efficacy assay, qRT-PCR of virus released in supernatants. The format is cell-based. The note with it: MOI of 0.05, pretreated 2 h, qRT-PCR at 48 h p.i., n = 3. Background: Real-time PCR tracks product formation cycle by cycle.
For data set [5], the system named is 293T-ACE2iRb3 cells. The data set is described as follows: Visualization of SARS-CoV-2 cell entry with STG probe. The note with it: pretreated with 2 μM for 1 h, 3 h post STG incubation. The format is cell-based, human. How it is done: Visulization of SARS-CoV-2 cell entry
To visualize the effect of drugs on viral entry, 293T-ACE2iRb3 cells were pretreated with serially diluted drugs for 1 h before STG probes addition for further incubation. Cell images shown in Fig 1e were acquired using a 100× oil immersion objective. The data shown in Fig S3 was derived from images acquired on Opera Phenix using 40× water immersion objective. For images of Fig 1e, cells were gently washed twice with PBS after 3 h incubation with STG, following a paraformaldehyde fixation before imaging. Cell images involved in Fig S3 were obtained under wash-free and live-cell conditions. The construction of STG probe used here and the image quantitative analysis were performed as previously described^1.
All drugs were tested in a 3-fold dilution series and the initial drug concentration was 15 μM. Three and five replicate wells were performed for the DMSO and drug groups, respectively. 25 fields of each well were imaged for quantitative analyses after 3 h incubation with STG-probe.

Data set [6] relates to Vero E6 cells. The data set is described as follows: Morphological observations, cytoplasmic vacuolization. Particulars: for induction of cytoplasmic vacuoles: Vero E6 cells, 5 μM, 8 h. The format is cell-based, African green monkey. As for the experimental part:
Morphological observations
Cells were seeded into 96-well plates and treated with test drugs for indicated time periods. Pictures of cells were subsequently obtained using Biotek Cytation-5&BioSpa8.

Data set [7] deals with SARS-CoV-2. Kind of data set: Cytopathic effect (CPE) inhibition assay in Vero E6 cells. Particulars: wild-type SARS-CoV-2, MOI = 0.1, 48 h. Format: cell-based.
On the set-up of data set [8]: method as in PMID 31628917. The note with it: patients with Crohn’s disease and rheumatoid arthritis; cited from earlier work.
For data set [9], the system named is SARS-CoV-2. Kind of data set: Time-of-addition experiment. The format is cell-based. Particulars: Vero E6 cells, qRT-PCR at 24 h p.i. and nucleoprotein Western blot. How it is done:
Time-of-addition experiment
Vero E6 cells were plated into 6-well plates and grew overnight. During “Full-time” treatment, cells were first treated with drug for two hours, and then infected with the virus for two hours. After that, the mixed supernatant was removed and cells were washed twice with PBS and finally cultured in fresh medium containing the same concentration of drug. For “Entry” treatment, pre-treatment and infection operations were similar to that in “Full-time” treatment. However, cells were cultured in drug-free medium after the mixed supernatant removed. As for “Post-entry” treatment, cells were infected with virus for 2 h before treated with drug for 2 h. Then the mixture was removed and fresh medium containing drug was added after cells were washed with PBS. The DMSO-control group was treated in the same way as “Full-time” group. For quantitative PCR, the MOI was controlled at 0.05 and supernatant was harvest at 24 h post infection. While for western blot, MOI was controlled at 0.30 and cells were harvest at 72 h post infection to identify the virus protein expression.

Data set [10] is described as follows: Pharmacokinetics after single intravenous and oral administration. The format is in vivo. Particulars: Sprague Dawley, plasma, rat; for MRT inf: read-out: MRT(0-∞). As for the experimental part: The pharmacokinetics of XMU-MP-7 were determined following single intravenous and oral administration in Sprague Dawley rat (N = 3/each) at the dose indicated. Blood samples were collected at 0.08, 0.25, 0.5, 1, 2, 4, 8 & 24 hr (IV) & 0.25, 0.5, 1, 2, 4, 6, 8 & 24 hr (PO) post dose. Then the samples were quantified by LC-MS/MS, and data analysis was conducted using WinNonlin V6.3. IV = intravenous injection, PO = oral delivery, Tmax = time of maximum plasma concentration, Cmax = maximum plasma concentration, AUC = area under the curve (measure of exposure), T1/2 = half life, Cl = plasma clearance, Vd = volume of distribution, F = oral bioavailability.

Data set [11] relates to cathepsin B. The data set is described as follows: Cathepsin B activation, Western blot. The format is cell-based, human. The note with it: A549 cells, time- and dose-dependent. A general note: Immunoblotting shows a protein as a band on a membrane.
[12] abbreviates: Severe acute respiratory syndrome coronavirus 2, Vero C1008, Vero E6 cells.

Read-outs that look alike come from different tables or passages of the source. A value given as a limit tells only on which side of the number the result lay.

As usually defined, the CC50 is the concentration giving 50% cytotoxicity. Higher therefore signals better tolerance by the cells. One may read the Kd as the free concentration of one partner at which half of the binding sites on the other are occupied at equilibrium, for simple one-to-one binding. Higher therefore signals a looser complex. Usually EC50 stands for the concentration at which the effect is half-maximal. With `Cc1ccc(NC(=O)c2cccc(C(F)(F)F)c2)cc1Nc1nc(-c2ccncc2)c2[nH]ccc2n1` [cmpd 24], the CC50 at 48 h is above 10 µM in data set [1] and 51.7 µM in data set [2] (48 h, n = 3). Moreover, the Kd in [3] was above 30 µM. Moreover, the EC50 in [4] (setting [12]) was determined as 12.3 µM. For the same compound, the “STG probe internalization (confocal images)” value (from here on “STG probe internalization”) in data set [5] is “STG entered the cytoplasm”. Besides, the “induction of cytoplasmic vacuoles” value in data set [6] was “could not induce visible vacuoles”.

By bioavailability is commonly meant the share of a dose that reaches the circulation, judged against a reference dose that is usually intravenous. For `Cc1cccc(/C=N/Nc2cc(N3CCOCC3)nc(OCCc3ccccn3)n2)c1` [Apilimod], the cytotoxic concentration (CC50) at 48 h in data set [1] was above 10 µM. Moreover, it took 41.8 µM to reach half-maximal cytotoxicity in data set [2] (48 h, n = 3) (CC50 at 48 h). In addition, the “rescue of cytopathic effect” value in [7] was “significantly rescued the cytopathic effects”. Besides, the EC50 in data set [4] (setting [12]) is below 0.0069 µM. Moreover, in data set [5], the “STG probe internalization” value is reported as “almost completely trapped on the enlarged cytoplasmic vacuoles”. In data set [6], the “time to visible cytoplasmic vacuoles” value was “less than 20 min” and the “induction of cytoplasmic vacuoles” value is “induced cytoplasmic vacuoles”. Besides, in data set [8], the bioavailability result is recorded as “poor bioavailability” and the plasma concentration result is “unexpected low plasma concentration”.

For orientation: AUC(0-inf) means the area under the concentration-time curve extrapolated to infinity. Read a low AUC(0-inf) as low exposure. For orientation: AUC(0-t) means exposure summed from dosing to a finite time, without extrapolation to infinity. Higher therefore signals more exposure. A word on the Tmax: it is the time at which the peak concentration occurs. One may read the half-life as the time needed for the level to fall by half in the phase considered. By Cmax is commonly meant the peak of the concentration-time curve. In data set [1], `COc1ccc(C(=O)Nc2cccc(C(F)(F)F)c2)cc1Nc1nc(-c2cccnc2)c2[nH]ccc2n1` [XMU-MP-7] showed a CC50 at 48 h above 10 µM. This compound had a cytotoxic concentration (CC50) at 48 h in data set [2] above 150 µM. Besides, in data set [9], the “stage of infection at which the drug acts” value is “potent antiviral roles at both entry and post-entry stages”. In [3], this compound yielded an equilibrium dissociation constant (Kd) of 0.0064 µM. The “rescue of cytopathic effect” value in data set [7] was “significantly rescued the cytopathic effects”. In data set [10] (IV, 2 mg/kg), the AUC(0-inf) is 4250 ng·h/mL, the AUC(0-t) came out at 4250 ng·h/mL, the C0 came out at 14000 ng/mL and the time to peak (Tmax) was determined as 0.08 h. In data set [10] (IV, 2 mg/kg), the Vd amounted to 0.2 L/kg, the clearance amounted to 7.88 mL/min/kg, the half-life is 0.608 h and the MRT inf worked out at 0.429 h. For the same compound, in [10] (PO, 10 mg/kg), the AUC(0-inf) is 2210 ng·h/mL, the exposure AUC(0-t) is 2200 ng·h/mL, the peak concentration (Cmax) came out at 429 ng/mL and the time of peak concentration (Tmax) was found to be 2.33 h. In addition, in data set [10] (PO, 10 mg/kg), the half-life is 3.06 h and the MRT inf stood at 3.81 h. Besides, the bioavailability in [10] (PO, 10 mg/kg, read-out: F (oral bioavailability)) is 10.4%. Further, the EC50 in data set [4] (setting [12]) came out at 0.0093 µM. Moreover, the “maturation of active cathepsin B” value in data set [11] was “impaired the maturation of active cathepsin B”. In [5], the “STG probe internalization” value is “almost completely trapped on the enlarged cytoplasmic vacuoles”. Also, in data set [6], the “time to visible cytoplasmic vacuoles” value was “less than 20 min” and the “induction of cytoplasmic vacuoles” value is “dramatically induced cytoplasmic vacuoles”.

On to `CCN(CC)CCCC(C)Nc1ccnc2cc(Cl)ccc12` (stereo not drawn) [Chloroquine], for which the midpoint of cytotoxicity in [2] (48 h, n = 3), the CC50 at 48 h, lay at 54.8 µM. In addition, the EC50 in data set [4] (setting [12]) was 0.549 µM; in data set [4] (Vero E6 cells), around 0.5 µM.

In the case of `CC(C)(C)[C@H](NC(=O)C(F)(F)F)C(=O)N1C[C@H]2[C@@H]([C@H]1C(=O)N[C@H](C#N)C[C@@H]1CCNC1=O)C2(C)C` [PF-07321332], in data set [4] (Vero E6 cells, read-out: EC50), the concentration giving a half-maximal response (EC50) was found to be 0.487 µM.

`CCC(CC)COC(=O)[C@H](C)N[P@](=O)(OC[C@H]1O[C@@](C#N)(c2ccc3c(N)ncnn23)[C@H](O)[C@@H]1O)Oc1ccccc1` [Remdesivir] returned a 50% cytotoxic concentration (CC50) at 48 h in data set [2] (48 h, n = 3) above 150 µM. For the same compound, the “stage of infection at which the drug acts” value in data set [9] was “only exerted an inhibitory effect at post-entry stage”. Further, in data set [4] (setting [12]), the concentration for a half-maximal effect (EC50) came out at 1.64 µM. In addition, the “STG probe internalization” value in data set [5] is “STG entered the cytoplasm”.
